The source of these data is patent publication US5847092A (Zambon Group S.p.A., priority 1994, dated 1998).

The subject of assay [1] is Enterococcus faecalis ATCC 29212. In words: In vitro antibacterial activity, MIC, broth microdilution. Format: cell-based. As to conditions: E. faecalis ATCC 29212, MHB, 37° C., 18 hours; for MIC: Enterococcus faecalis, ATCC29212, read-out: minimum inhibiting concentration MIC. The protocol:
(§1) a) In vitro antibacterial activity The determination of the minimum inhibiting concentrations (MIC), with respect to Gram-positive and Gram-negative bacteria was carried out through the micromethod of gradual broth dilution in double series [National Committee for Clinical Laboratory Standards, 1990; Methods for dilution antimicrobial susceptibility tests for bacteria that grow aerobically; Approved standards […], Villanova, Pa.], by using Mueller Hinton Broth (MHB) as a culture medium. In the case of […] bacteria, horse serum at 5% (Streptococcus pneumoniae and Streptococcus pyogenes) was added to the medium. Roxithromycin and Clarithromycin [The Merck Index, XI Ed., No. 8253 and 2340, respectively] were used as reference macrolides. MIC, expressed as (μg/ml), were determined after incubation of the microplates at 37° C. for 18 hours, evaluating the lowest antibiotic concentration enabling the inhibition of bacterial development.
In general terms: In broth dilution the organism is exposed to a series of concentrations in liquid medium.

Assay [2] concerns Escherichia coli ATCC 25922. The assay is described as above. Format: cell-based. As to conditions: E. coli ATCC 25922, MHB, 37° C., 18 hours; for MIC: Escherichia coli, ATCC25922, read-out: minimum inhibiting concentration MIC. How it is done: as §1
Assay [3] has as its system Klebsiella pneumoniae ZC 2. Described as above. It counts as cell-based. Particulars: K. pneumoniae ZC 2, MHB, 37° C., 18 hours; for MIC: Klebsiella pneumoniae, ZC2, read-out: minimum inhibiting concentration MIC. How it is done: as §1
For assay [4], the system named is Staphylococcus aureus PV 14. The assay is described as above. Format: cell-based. Particulars: S. aureus PV 14, MHB, 37° C., 18 hours; for MIC: Staphylococcus aureus, PV14, read-out: minimum inhibiting concentration MIC. How it is done:
as §1

Assay [5] deals with Streptococcus pneumoniae BS 3. Described as above. It counts as cell-based. As to conditions: S. pneumoniae BS 3, MHB + 5% horse serum, 37° C., 18 hours; for MIC: Streptococcus pneumoniae, BS3, read-out: minimum inhibiting concentration MIC. How it is done: as §1
In assay [6] the test system is Streptococcus pneumoniae BS 4. Described as above. Format: cell-based. As to conditions: S. pneumoniae BS 4, MHB + 5% horse serum, 37° C., 18 hours; for MIC: Streptococcus pneumoniae, BS4, read-out: minimum inhibiting concentration MIC. The protocol:
as §1

Assay [7] has as its system Streptococcus pyogenes A 26. Described as above. It counts as cell-based. As to conditions: S. pyogenes A 26, MHB + 5% horse serum, 37° C., 18 hours; for MIC: Streptococcus pyogenes, A26, read-out: minimum inhibiting concentration MIC. How it is done:
as §1

The subject of assay [8] is Streptococcus pyogenes C 203. The assay is described as above. Format: cell-based. As to conditions: S. pyogenes C 203, MHB + 5% horse serum, 37° C., 18 hours; for MIC: Streptococcus pyogenes, C203, read-out: minimum inhibiting concentration MIC. The protocol: as §1
The test system of assay [9] is Streptococcus pyogenes C 203. As to the kind of experiment: In vivo antibacterial activity, experimental pulmonary infection in mouse. Particulars: Streptococcus pyogenes, C203, ip, 240 h, intraperitoneal single dose, read-out: average protecting dose PD50. The protocol: The in vivo antibacterial activity of the compounds of formula (I), expressed as average protecting dose PD50 (mg/Kg), was evaluated by means of experimental pulmonary infection induced in mouse by Streptococcus pyogenes (example 23).
b) In vivo antibacterial activity
The therapeutical effectiveness, expressed as average protecting dose (PD50), of the considered compounds of formula (I) was evaluated by experimental pulmonary infection induced in mouse by Streptococcus pyogenesC 203.
Charles River albin mice (strain CD 1), of body weight comprised between 23-35 g, stabulated in groups of 6 for cage and normo-feeded with standard diet and water ad libitum were used. A suspension of S. pyogenes C 203 (corresponding about to 10^8 UFC) in tryptose broth (0.05 ml) was intranasally administered to each mouse anesthesized with a mixture of ethyl ether and chloroform.
The compounds under examination were intraperitoneally administered as a single dose, in 0.2% Tween suspension, 24 hours before or 1 hour after the infection.
Mice mortality observation was prolonged up to 10 days from the infection.
PD50 calculation, expressed as (mg/Kg), was carried out through the analysis of probit.
In vivo antibacterial activity, expressed as average protecting dose PD50 (mg/Kg), 24 hours before and 1 hour after the experimental pulmonary infection induced in mouse by Streptococcus pyogenes C 203, of the compounds 4, 10, 16-19, 21, 23, 26-27, 29-30, 33-35 and 38 and of the reference compounds Roxithromycin and Clarithromycin.

In brackets after ≈: the same amount, converted by molar mass. Read-outs that look alike come from different tables or passages of the source.

As to `CC[C@H]1OC(=O)[C@H](C)[C@@H](O[C@H]2C[C@@](C)(OC)[C@@H](O)[C@H](C)O2)[C@H](C)[C@@H](O[C@@H]2O[C@H](C)C[C@H](N(C)C)[C@H]2O)[C@](C)(O)C[C@@H](C)/C(=N\OCCNCCCCCCNCc2ccc(-c3ccccc3)cc2)[C@H](C)[C@@H](O)[C@]1(C)O` [Compound 30, Erythromycin A (E)-9-[0-[2-[6-[(biphenyl-4-yl)methylamino]hexylamino]ethyl]oxime]], the MIC came to 1 µg/mL (≈ 0.946 µM) in assay [1]; 1 µg/mL (≈ 0.946 µM) in assay [2]; 2 µg/mL (≈ 1.89 µM) in assay [3]; 0.5 µg/mL (≈ 0.473 µM) in [4]; 0.0156 µg/mL in [5]; 0.0156 µg/mL in assay [6]. The MIC amounted to 0.0156 µg/mL in [7] and 7.8 ng/mL in assay [8]. Moreover, the ED50 in [9] (1 hour after infection) and in assay [9] (24 hours before infection) was 19.3 mg/kg throughout.
`CC[C@H]1OC(=O)[C@H](C)[C@@H](O[C@H]2C[C@@](C)(OC)[C@@H](O)[C@H](C)O2)[C@H](C)[C@@H](O[C@@H]2O[C@H](C)C[C@H](N(C)C)[C@H]2O)[C@](C)(O)C[C@@H](C)/C(=N\OCCNCCCCCCNCc2ccc3c(c2)OCO3)[C@H](C)[C@@H](O)[C@]1(C)O` [Compound 18, Erythromycin A (E)-9-[0-[2-[6-[(3,4-methylenedioxyphenyl)methylamino]hexylamino]ethyl]oxime]]: the MIC in [1] came to 2 µg/mL (≈ 1.95 µM); in [2], 2 µg/mL (≈ 1.95 µM); in assay [3] it was 16 µg/mL (≈ 15.6 µM); in assay [4] it was 0.25 µg/mL (≈ 0.244 µM); in [5], 0.0156 µg/mL; in assay [6], 0.0312 µg/mL. In addition, the MIC worked out at 0.0312 µg/mL in [7] and 7.8 ng/mL in assay [8]. Moreover, the ED50 was 1.32 mg/kg in assay [9] (1 hour after infection) and 2.23 mg/kg in assay [9] (24 hours before infection).
Take `CC[C@H]1OC(=O)[C@H](C)[C@@H](O[C@H]2C[C@@](C)(OC)[C@@H](O)[C@H](C)O2)[C@H](C)[C@@H](O[C@@H]2O[C@H](C)C[C@H](N(C)C)[C@H]2O)[C@](C)(O)C[C@@H](C)/C(=N\OCCNCCCCCCNCc2ccccc2)[C@H](C)[C@@H](O)[C@]1(C)O` [Compound 4, Erythromycin A (E)-9-[0-[2-[6-(phenylmethylamino)hexylamino]ethyl]oxime]]: the MIC in assay [1] was 4 µg/mL (≈ 4.08 µM); in assay [2] it was 4 µg/mL (≈ 4.08 µM); in assay [3], 16 µg/mL (≈ 16.3 µM); in assay [4] it was 0.25 µg/mL (≈ 0.255 µM); in assay [5], 0.0156 µg/mL; in [6] it was 0.0156 µg/mL. Also, the MIC in assay [7] came out at 0.0156 µg/mL; in assay [8], 3.9 ng/mL. In addition, the ED50 in [9] (1 hour after infection) turned out to be 0.9 mg/kg; in assay [9] (24 hours before infection), 4.78 mg/kg.
With `CC[C@H]1OC(=O)[C@H](C)[C@@H](O[C@H]2C[C@@](C)(OC)[C@@H](O)[C@H](C)O2)[C@H](C)[C@@H](O[C@@H]2O[C@H](C)C[C@H](N(C)C)[C@H]2O)[C@](C)(O)C[C@@H](C)/C(=N\OCCNCCCCCCNCc2cccc([N+](=O)[O-])c2)[C@H](C)[C@@H](O)[C@]1(C)O` [Compound 34, Erythromycin A (E)-9-[0-[2-[6-[(3-nitrophenyl)methylamino]hexylamino]ethyl]oxime]], the MIC in [1] worked out at 1 µg/mL (≈ 0.974 µM); in assay [2], 1 µg/mL (≈ 0.974 µM); in assay [3] it was 8 µg/mL (≈ 7.79 µM); in [4], 0.25 µg/mL (≈ 0.244 µM); in [5], 0.0019 µg/mL; in assay [6], 0.0039 µg/mL. For the same molecule, the MIC in assay [7] worked out at 0.0078 µg/mL; in assay [8], 3.9 ng/mL. Moreover, the ED50 in [9] (1 hour after infection) came to 1.88 mg/kg; in [9] (24 hours before infection), 6.8 mg/kg.
For the molecule `CC[C@H]1OC(=O)[C@H](C)[C@@H](O[C@H]2C[C@@](C)(OC)[C@@H](O)[C@H](C)O2)[C@H](C)[C@@H](O[C@@H]2O[C@H](C)C[C@H](N(C)C)[C@H]2O)[C@](C)(O)C[C@@H](C)/C(=N\OCCNCCCCCCNCc2ccco2)[C@H](C)[C@@H](O)[C@]1(C)O` [Compound 31], the MIC is 4 µg/mL (≈ 4.12 µM) in assay [1]; 4 µg/mL (≈ 4.12 µM) in assay [2]; 16 µg/mL (≈ 16.5 µM) in assay [3]; 0.5 µg/mL (≈ 0.515 µM) in [4]; 0.0078 µg/mL in assay [5]; 0.0078 µg/mL in [6]. The MIC in assay [7] is 0.0078 µg/mL; in assay [8], 3.9 ng/mL.
For the molecule `CC[C@H]1OC(=O)[C@H](C)[C@@H](O[C@H]2C[C@@](C)(OC)[C@@H](O)[C@H](C)O2)[C@H](C)[C@@H](O[C@@H]2O[C@H](C)C[C@H](N(C)C)[C@H]2O)[C@](C)(O)C[C@@H](C)/C(=N\OCCNCCNCc2ccccc2)[C@H](C)[C@@H](O)[C@]1(C)O` [Compound 5, Erythromycin A (E)-9-[0-[2-[2-(phenylmethylamino)ethylamino]ethyl]oxime]], the MIC in [1] was 4 µg/mL (≈ 4.32 µM); in [2], 8 µg/mL (≈ 8.65 µM); in assay [3], 32 µg/mL (≈ 34.6 µM); in [4], 1 µg/mL (≈ 1.08 µM); in assay [5] it was 0.0156 µg/mL; in assay [6] it was 0.0312 µg/mL. Moreover, the MIC in [7] is 0.0312 µg/mL; in assay [8], 15.6 ng/mL.
For `CC[C@H]1OC(=O)[C@H](C)[C@@H](O[C@H]2C[C@@](C)(OC)[C@@H](O)[C@H](C)O2)[C@H](C)[C@@H](O[C@@H]2O[C@H](C)C[C@H](N(C)C)[C@H]2O)[C@](C)(O)C[C@@H](C)/C(=N\OCCNCCCCCCNCc2cc(Cl)cc(Cl)c2O)[C@H](C)[C@@H](O)[C@]1(C)O` [Compound 32, Erythromycin A (E)-9-[0-[2-[6-[(3,5-dichloro-2-hydroxyphenyl)methylamino]hexylamino]ethyl]oxime]], the MIC was 2 µg/mL (≈ 1.88 µM) in assay [1]; 4 µg/mL (≈ 3.75 µM) in assay [2]; 16 µg/mL (≈ 15 µM) in assay [3]; 0.5 µg/mL (≈ 0.469 µM) in [4]; 0.0625 µg/mL in assay [5]; 0.0312 µg/mL in [6]. Moreover, the MIC in assay [7] amounted to 0.0625 µg/mL; in [8] it was 15.6 ng/mL.
As for “Erythromycin A (E)-9-[0-[2-[N-ethyl-6-[N'-ethyl-N'-(2-phenylethyl)amino]hexylamino]hexyl])oxime] [Compound 2]”, the “minimum inhibiting concentration MIC” value in assay [1] was 8 µg/mL; in assay [2], 16 µg/mL; in assay [3], 64 µg/mL; in assay [4], 1 µg/mL; in assay [5], 0.0156 µg/mL; in [6] it was 0.0312 µg/mL. Besides, the figures for the “minimum inhibiting concentration MIC” value in assay [7] and in assay [8] were 0.0156 µg/mL and 0.0312 µg/mL, respectively.
Regarding `CC[C@H]1OC(=O)[C@H](C)[C@@H](O[C@H]2C[C@@](C)(OC)[C@@H](O)[C@H](C)O2)[C@H](C)[C@@H](O[C@@H]2O[C@H](C)C[C@H](N(C)C)[C@H]2O)[C@](C)(O)C[C@@H](C)/C(=N\OCCNCCCCCCNCc2ccc([N+](=O)[O-])c(O)c2)[C@H](C)[C@@H](O)[C@]1(C)O` [Compound 37, Erythromycin A (E)-9-[0-[2-[6-[(3-hydroxy-4-nitrophenyl)methylamino]hexylamino]ethyl]oxime]], the MIC in assay [1] came to 8 µg/mL (≈ 7.68 µM); in assay [2], 4 µg/mL (≈ 3.84 µM); in assay [3], 16 µg/mL (≈ 15.4 µM); in [4] it was 0.5 µg/mL (≈ 0.48 µM); in assay [5], 0.0312 µg/mL; in assay [6], 0.0312 µg/mL. Besides, the MIC in [7] was determined as 0.0312 µg/mL; in assay [8], 3.9 ng/mL.
